Assays:
[1] = system: IL-1β-induced corneal lymphangiogenesis; assay: IL-1β-induced corneal lymphangiogenesis (anti-LYVE-1 stain); format: in vivo, BALB/c mice; conditions: 0.3 mg/kg daily i.p.
Experimental: BALB/c mice were anesthetized by intraperitoneal (i.p.) injection of pentobarbital sodium (60 mg/kg). Hydron pellets (0.3 μl) containing 30 ng mouse IL-1β (401-ML, R&D Systems) were prepared and implanted into the corneas. Pellets were positioned 1 mm from the corneal limbus. Implanted eyes were treated with Bacitracin ophthalmic ointment (E. Fougera & Co.) to prevent infection.
(§1) To block CB, mice received daily i.p. injections of a specific CBD. Compound II (R-tech Ueno Ltd., Tokyo, Japan) as described above. A daily dose of 0.3 mg/kg was administered at day 0 and continued until the sixth day after implantation. Two, four and six days after implantation, digital images of the corneal vessels were obtained and recorded using OpenLab software version 2.2.5 (Improvision Inc.) with standardized illumination and contrast and were saved onto disks. The quantitative analysis of new vessel growth in the mouse corneas was performed using Scion Image software (version 4.0.2, Scion Corp.).
Eyes were enucleated and fixed with 4% paraformaldehyde for one hour at 4° C. For whole-mount preparation, the corneas were exposed by removing other portions of the eye (i.e iris, sclera, retina, and conjunctiva). […]

[2] = system: vascular leakage from the CNV lesions; assay: Laser injury CNV model, fluorescein angiography grading of leakage; format: in vivo, Brown-Norway rats; conditions: rats
Experimental: Lewis rats were euthanized by overdose anesthesia and perfused with PBS (500 ml/kg body weight (BW)). Eyes were immediately enucleated and the retinal pigment epithelium (RPE)-choroid complex was obtained from the rat eyes and homogenized in extraction reagent (TRIzol Reagent; Invitrogen, Carlsbad, Calif.). As a control, the retinal tissues were separately obtained and processed. Total RNA was prepared according to the manufacturer's protocol, and equal amounts ([…]) of total RNA were reverse transcribed with a First-Strand cDNA synthesis kit (GE Healthcare, Buckinghamshire, UK) at 37° C. for 1 hour in a 15 μl reaction volume. […] PCR products were analyzed by electrophoresis in a 1.5% agarose gel and stained with ethidium bromide ([…]). The expected sizes of the amplified cDNA fragments of CB and GAPDH were 341 bp and 387 bp, respectively Band densities were quantified using NIH Image 1.41 software (available by ftp from zippy.nimh.nih.gov/or from the web site, rsb info.nih.gov/nih-image: developed by Wayne Rasband, National Institutes of Health, Bethesda, Md.). […]
Seven days after laser injury, vascular leakage from the CNV lesions was assessed using fluorescein angiography (FA), as described previously (Zambarakji et al. (2001) IOVS 42: 1553-60). […]

[3] = system: IL-1β-induced corneal angiogenesis; assay: IL-1β-induced corneal angiogenesis; format: in vivo, BALB/c mice; conditions: 0.3 mg/kg daily i.p.; compared with untreated controls
Experimental: as §1, with “BALB/c mice were anesthetized by intraperitoneal (i.p.) injection of pentobarbital sodium (60 mg/kg). Hydron pellets (0.3 μl) containing 30 ng mouse IL-1β (401-ML, R&D Systems) were prepared and implanted into the corneas. Pellets were positioned 1 mm from the corneal limbus. Implanted eyes were treated with Bacitracin ophthalmic ointment (E. Fougera & Co.) to prevent infection. To block” for “To block”

CC(=O)Nc1nc(CCc2ccc(NC(=N)NN)cc2)c(Cc2ccc(S(C)(=O)=O)cc2)s1 [Compound II]
effect on corneal lymphangiogenesis (in words) [1]: effectively suppresses corneal lymphangiogenesis | effect on fluorescent angiographic leakage (in words) [2]: significantly decreased | effect on corneal angiogenesis (in words) [3]: effectively suppresses corneal angiogenesis

— patent US20220079889A1, “USE OF CANNABANOIDS IN THE TREATMENT OF PROLIFERATIVE DIABETIC RETINOPATHY” (VERDANT PHARMACEUTICALS, LLC, priority 2020, published 2022)
